# Results published in patent publication US12150934B2 (Bantam Pharmaceutical, LLC, priority 2016, dated 2024).
# Test system: HCT116 cells
# Assay: Effect on glutathione levels with menadione and N-acetyl cysteine
# Format: cell-based
# Settings: FIG. 3
# Experimental: Effect on Glutathione levels: BJAB and HCT116 cells were maintained in RPMI medium (Wisent) or McCoy's medium (Wisent), respectively. 5000 cells/well were transferred to clear-bottom 96-well assay plates (Thermo Fisher) in a volume of 50 μL. Plates were incubated overnight at 37° C. in 5% CO2, in an unsealed plastic bag with damp paper. Menadione (Sigma) was dissolved in DMSO and diluted in 10% heat inactivated FBS plus culture medium to 20 μM and 5 μM (0.2% DMSO for each). Culture medium was gently aspirated from cells and replaced by 50 μl diluted menadione or 0.2% DMSO for controls. Test compound was diluted to 80 μM (0.2% DMSO) in 10% heat inactivated FBS plus culture medium then diluted further to 5 μM, 1 μM, 0.5 μM and 0.05 μM (in 0.2% DMSO). 50 μL test compound solution was added to each well, with or without menadione. One μL of an N-acetyl cysteine (Sigma) solution at 100 mM in water was added where indicated. Assay plates were incubated for the times indicated at 37° C. 5% CO2 in opened plastic bag with damp paper. Total glutathione levels were determined according to the procedure described above.
row,SMILES,Glutathione levels in HCT116 cells after treatment
1,CC1=CC(=O)c2ccccc2C1=O [menadione],reduction

# Same assay, conditions: presence or absence of N-acetyl cysteine, FIG. 3
row,SMILES,Effect of N-acetyl cysteine on the reduction of glutathione
1,CC1=CC(=O)c2ccccc2C1=O [menadione],prevents the reduction

# Test system: BJAB cells
# Assay: BJAB cell proliferation (Cell Titer Glo)
# Format: cell-based
# Settings: Homo sapiens, approximately 72 hours
# Experimental: Cells were seeded in white Corning Costar 96-well assay plates at 2500 cells/well in 50 μL of medium. Serial dilutions of test compounds were made in cell culture medium/FBS+0.2% DMSO, and transferred to assay plates in a volume of 50 μL (DMSO at 0.1% final). Plates were maintained at 37° C. for approximately 72 hours. The effect of compounds on cell proliferation was evaluated using the Cell Titer Glo reagent (Promega), according to the manufacturer's instructions. Briefly, 100 μL of reagent was added per well, and after a 10 minute incubation luminescence values were determined on a plate reader (Tecan F200PRO). The percent of luminescence signal relative to untreated controls was calculated for each compound concentration, and EC50 values were determined from dose response data by non-linear regression analysis using Prism (GraphPad). The mTor inhibitor Torin1 (Liu, et al. (2010) J. Med. Chem. 53, 7146) was used as a control. The data are summarized in the compound table provided above.
row,SMILES,EC50 [µM]
1,Cc1nn(-c2nc(-c3cccc(F)c3)c(SC(C)C)s2)c(C(=O)O)c1-c1cccc(F)c1 [Compound 201a],25 to 50
2,"CCNC(=O)c1cc(-c2nc(-n3nc(C)c(-c4cccc(F)c4)c3C(=O)O)sc2SC(C)C)ccc1Cl [Compound 243, 1-(4-(4-chloro-3-(ethylcarbamoyl)phenyl)-5-(isopropylthio)thiazol-2-yl)-4-(3-fluorophenyl)-3-methyl-1H-pyrazole-5-carboxylic acid]",> 40
3,CCC(C)Sc1sc(-n2nc(C)c(-c3cc(C)nc(C)c3)c2C(=O)O)nc1-c1ccc(Cl)c(Cl)c1 (centres unmarked) [Compound 33b],< 1
4,"Cc1nn(-c2nc(-c3ccc(C#N)cc3)c(SC(C)C)s2)c(C(=O)O)c1-c1cccc(F)c1 [Compound 213, 1-(4-(4-cyanophenyl)-5-(isopropylthio)thiazol-2-yl)-4-(3-fluorophenyl)-3-methyl-1H-pyrazole-5-carboxylic acid]",5 to 10
5,"Cc1nn(-c2nc(-c3cc(Cl)cc(Cl)c3)c(SC(C)C)s2)c(C(=O)O)c1-c1cc(Cl)cc(Cl)c1 [Compound 150, 4-(3,5-dichlorophenyl)-1-(4-(3,5-dichlorophenyl)-5-(isopropylthio)thiazol-2-yl)-3-methyl-1H-pyrazole-5-carboxylic acid]",1 to 5
6,Cc1nn(-c2nc(-c3cc4ccccc4o3)c(SC(C)C)s2)c(C(=O)O)c1-c1cccc(F)c1 [Compound 201b],10 to 25
7,"Cc1nn(C)cc1-c1c(C)nn(-c2nc(-c3ccc(Cl)c(Cl)c3)c(SC(C)C)s2)c1C(=O)O [Compound 22, 2-(4-(3,4-dichlorophenyl)-5-(isopropylthio)thiazol-2-yl)-2′,5,5′-trimethyl-4,4′-bi(2H-pyrazole)-3-carboxylic acid]",10 to 25
8,"COCCOc1cc(Cl)cc(-c2c(C)nn(-c3nc(-c4ccc(Cl)c(Cl)c4)c(SC(C)C)s3)c2C(=O)O)c1 [Compound 175, 4-(3-chloro-5-(2-methoxyethoxy)phenyl)-1-(4-(3,4-dichlorophenyl)-5-(isopropylthio)thiazol-2-yl)-3-methyl-1H-pyrazole-5-carboxylic acid]",1 to 5
9,"Cc1nn(-c2nc(-c3ccc(Cl)c(Cl)c3)c(F)s2)c(C(=O)O)c1-c1cccc(F)c1 [Compound 227, 1-(4-(3,4-dichlorophenyl)-5-fluorothiazol-2-yl)-4-(3-fluorophenyl)-3-methyl-1H-pyrazole-5-carboxylic acid]",10 to 25
10,"Cc1nn(-c2nc(-c3cncc(C#N)c3)c(SC(C)C)s2)c(C(=O)O)c1-c1cccc(F)c1 [Compound 210, 1-(4-(5-cyanopyridin-3-yl)-5-(isopropylthio)thiazol-2-yl)-4-(3-fluorophenyl)-3-methyl-1H-pyrazole-5-carboxylic acid]",> 40
11,"CSc1sc(-n2nc(C)c(Cc3ccccc3[N+](=O)[O-])c2C(=O)O)nc1-c1ccc(Cl)c(Cl)c1 [Compound 45, 1-(4-(3,4-dichlorophenyl)-5-(methylthio)thiazol-2-yl)-3-methyl-4-(2-nitrobenzyl)-1H-pyrazole-5-carboxylic acid]",25 to 50

# Same assay, conditions: approximately 72 hours
row,SMILES,EC50 (BJAB cell proliferation)
1,"Cc1nn(-c2nc(-c3ccc(Cl)c(Cl)c3)c(SC(C)C)s2)c(C(=O)O)c1-c1cccc(F)c1 [Compound 151, 1-(4-(3,4-dichlorophenyl)-5-(isopropylthio)thiazol-2-yl)-4-(3-fluorophenyl)-3-methyl-1H-pyrazole-5-carboxylic acid]","A,B"
